Laboratory results as given in ChEMBL document CHEMBL1130686, “A new series of C3-aza carbocyclic influenza neuraminidase inhibitors: synthesis and inhibitory activity” (Bioorg Med Chem Lett, 1998).

Target: Neuraminidase (Influenza A virus (A/Puerto Rico/8/1934(H1N1)), UniProt P03468)
Assay: Inhibition of neuraminidase of influenza A

Compound	IC50
CCCN[C@@H]1C=C(C(=O)O)C[C@H](N)[C@H]1NC(C)=O	200 nM
CCCN(CC)[C@@H]1C=C(C(=O)O)C[C@H](N)[C@H]1NC(C)=O	90 nM
CCC(CC)N(C)[C@@H]1C=C(C(=O)O)C[C@H](N)[C@H]1NC(C)=O	6 nM
CCC(=O)N[C@@H]1C=C(C(=O)O)C[C@H](N)[C@H]1NC(C)=O	2700 nM
CCCCN(CC)[C@@H]1C=C(C(=O)O)C[C@H](N)[C@H]1NC(C)=O	85 nM
CC(=O)N[C@H]1[C@H](N(C)CCc2ccccc2)C=C(C(=O)O)C[C@@H]1N	100 nM
CC(=O)N[C@@H]1[C@@H](N)CC(C(=O)O)=C[C@H]1NC(=O)C(C)C	6400 nM
CC(=O)N[C@H]1[C@H](N(C)C2CCCCC2)C=C(C(=O)O)C[C@@H]1N	200 nM
CCC(CC)N[C@@H]1C=C(C(=O)O)C[C@H](N)[C@H]1NC(C)=O	11 nM
CCC(CC)C(=O)N[C@@H]1C=C(C(=O)O)C[C@H](N)[C@H]1NC(C)=O	4000 nM
CCCN(CCC)[C@@H]1C=C(C(=O)O)C[C@H](N)[C@H]1NC(C)=O	12 nM
CCCCN(C)[C@@H]1C=C(C(=O)O)C[C@H](N)[C@H]1NC(C)=O	180 nM
